Reference: patent US10004718B2, “Erythropoietin expression promoter” (TOHOKU UNIVERSITY, priority 2012, dated 2018)

Experiment: Plasma concentration in mice after tail vein administration (LC/MS/MS)
Assay type: in vivo, mouse
Procedure: Compound #4 was administered alone to the tail veins of 3 mice (C57BL/6N 8 W, male, 21-25 g). 30 minutes, 1 hour, and 6 hours after the administration, each mouse was cervically dislocated, and 500 μl of blood was collected from the heart. Then, an anticoagulant (10 μl of heparin) was added thereto, and the resulting blood was centrifuged (12000 rpm×20 min, 4° C.) to isolate plasma. DMSO (57 μl) was administered alone to the tail veins of mice, which were in turn used as controls.
The plasma concentration of the compound #4 was quantified using LC/MS/MS constituted by TSQ Quantum Ultra (manufactured by Thermo Fisher Scientific Inc.) and NANOSPACE SI-2 (manufactured by Shiseido Co., Ltd.). Conditions for the selected reaction monitoring (SRM) method of the compound #4 or 2-methyl-5-([2-naphthylamino]carbonyl)-3-thienyl)acetic acid used as an internal standard (hereinafter, referred to as an “internal standard compound”) are “m/z 311.1>116.0 (collision energy, CE=24)” and “m/z 324.1>280.0 (CE=14)”. “Xbridge C18 (150 mm×2.1 mm i.d., 3.5 μm particle size)” was selected as an analytical column. […] The compound #4 and the internal standard compound were detected 8.51 and 9.00 minutes, respectively (upper column of FIG. 10). […] The sample (1 μl) was introduced through a filter to LC/MS/MS to quantify the plasma concentration (μg/ml) of the compound #4 (lower column of FIG. 10).

## O=C(CC(C(=O)O)c1c[nH]c2ccccc12)c1ccc(F)cc1 (centres unmarked) [compound #4, 4-(4-Fluorophenyl)-2-(1H-indol-3-yl)-4-oxo-butanoic acid]
  time after administration up to which the compound is detected in plasma: at least 6 hours
30 minutes after the administration
  detection in plasma: detected at a high level
